Source: US20120276634A1, “SOMATIC EMBRYOGENESIS AND EMBRYO HARVESTING AND METHOD AND APPARATUS FOR PREPARING PLANT EMBRYOS FOR PLANT PRODUCTION” (ArborGen Inc., priority 2005, published 2012)

Experiments:
[1] = tested on: loblolly pine embryogenic cell lines (J and K); assay: Effect of brassinolide in post cryostorage recovery medium on tissue production; type: cell-based; details: 0.1 μM in high casein Mi3
Source text: This experiment addresses whether brassinolide in the post-cryogenic storage bulk up medium has a positive effect on tissue recovery and growth enabling faster tissue multiplication and bulk up; and whether there is a cell-line-by-treatment (with or without brassinolide) interaction that can be exploited to enable genotype screening to optimize the best combination for each cell line in terms of both tissue growth and subsequent somatic embryo production. Two post-cryostrorage recovery (bulk up) media treatments were tested: Treatment #1: Mi3 medium (Tables 1 and 2) with high (2.0 g/liter) casein (the improved medium) Treatment #2: The same high casein Mi3 with addition of 0.1 μM Brassinolide Five J cell lines and five K lines were tested. For each cell line, 4 vials (2 post-cryo recovery media×2 replications) were retrieved from cryostorage. Recovered tissue from each vial was transferred to their respective fresh medium at 2 week intervals using a raft transfer method. Weight data was recorded for tissue derived from each vial at the 6th week after cryo-retrieval. At the 6th week, tissues from both reps of each treatment were pooled and maintained on their respective maintenance medium using a tissue dispersion method: 200 mg per sample in 1 ml liquid Mi3 medium dispersed by agitation and poured onto each culture plate. A total of 800 mg of tissue from each cell line×post-cryo media combination were plated on embryo development medium (4 reps of 200 mg/plate) to test embryo production capacity. Total tissue weight at each subculture was recorded to calculate the potential of each treatment for tissue bulk up and embryo production. Harvestable somatic embryos from each plate were recorded at 9 weeks of incubation on MSG embryo development medium (Tables 1 and 2). Embryo production data was analyzed separately for the J and K cell lines using PROCGLM procedure of SAS. Embryo production potential for each treatment was calculated by multiplying embryo production data by the total potential tissue produced in each cell line and treatment.

[2] = tested on: loblolly pine embryogenic cell lines (J and K); assay: Effect of brassinolide in post cryostorage recovery medium on embryo production and embryo production potential; type: cell-based; details: 0.1 μM in high casein Mi3
Experimental: Five J cell lines and five K lines were tested. For each cell line, 4 vials (2 post-cryo recovery media×2 replications) were retrieved from cryostorage. Recovered tissue from each vial was transferred to their respective fresh medium at 2 week intervals using a raft transfer method. Weight data was recorded for tissue derived from each vial at the 6th week after cryo-retrieval. At the 6th week, tissues from both reps of each treatment were pooled and maintained on their respective maintenance medium using a tissue dispersion method: 200 mg per sample in 1 ml liquid Mi3 medium dispersed by agitation and poured onto each culture plate. A total of 800 mg of tissue from each cell line×post-cryo media combination were plated on embryo development medium (4 reps of 200 mg/plate) to test embryo production capacity. Total tissue weight at each subculture was recorded to calculate the potential of each treatment for tissue bulk up and embryo production. Harvestable somatic embryos from each plate were recorded at 9 weeks of incubation on MSG embryo development medium (Tables 1 and 2). Embryo production data was analyzed separately for the J and K cell lines using PROCGLM procedure of SAS. Embryo production potential for each treatment was calculated by multiplying embryo production data by the total potential tissue produced in each cell line and treatment. The effect of brassinolide in the improved Mi3 bulk up medium on subsequent embryo production was tested. […] Since cell line×media treatment interaction was highly significant, data from each line was analyzed separately for each treatment.

With `CC(C)[C@H](C)[C@@H](O)[C@H](O)[C@@H](C)[C@H]1CC[C@H]2[C@@H]3COC(=O)[C@H]4C[C@H](O)[C@H](O)C[C@]4(C)[C@H]3CC[C@]12C` [brassinolide, Brassinolide] the “amount of tissue compared to the improved medium without brassinolide” value ([1]; J lines) was 127%, the “amount of tissue compared to the improved medium without brassinolide” value ([1]; K lines) was 191% and the tissue production ([1]; all 10 cell lines) was “produced highest amount of tissue”. For the same compound, the increase in growth ([1]; slow-recovering cell lines K10, K11 and J4) was “two to three-fold”, the “embryo production potential compared to the improved Mi3 without brassinolide” value ([2]; J cell lines) was 149% and the “embryo production potential compared to the improved Mi3 without brassinolide” value ([2]; K cell lines) was 136%. The “embryo production potential, higher compared to the control” value ([2]; both J and K lines) was greater than 35%.
